IC50 data for 49 compounds are collected here from ChEMBL document CHEMBL4184286, “Discovery of morpholine-based aryl sulfonamides as Nav1.7 inhibitors” (Bioorg Med Chem Lett, 2018).

Test [1] has as its target Sodium channel protein type 9 subunit alpha (Homo sapiens, UniProt Q15858). Nature of the test: Antagonist activity at recombinant human Nav1.7 expressed in HEK293 cells assessed as reduction in channel current at -60 mV holding potential after 600 secs by barracuda automated electrophysiology method. It is filed as cell-based.
The target of test [2] is Sodium channel protein type 5 subunit alpha (Homo sapiens, UniProt Q14524). Nature of the test: Antagonist activity at recombinant human Nav1.5 expressed in HEK293 cells assessed as reduction in channel current at -50 mV holding potential after 600 secs by barracuda automated electrophysiology method. It is filed as ADME, cell-based.
Sequence of Sodium channel protein type 5 subunit alpha (Q14524 whole entry): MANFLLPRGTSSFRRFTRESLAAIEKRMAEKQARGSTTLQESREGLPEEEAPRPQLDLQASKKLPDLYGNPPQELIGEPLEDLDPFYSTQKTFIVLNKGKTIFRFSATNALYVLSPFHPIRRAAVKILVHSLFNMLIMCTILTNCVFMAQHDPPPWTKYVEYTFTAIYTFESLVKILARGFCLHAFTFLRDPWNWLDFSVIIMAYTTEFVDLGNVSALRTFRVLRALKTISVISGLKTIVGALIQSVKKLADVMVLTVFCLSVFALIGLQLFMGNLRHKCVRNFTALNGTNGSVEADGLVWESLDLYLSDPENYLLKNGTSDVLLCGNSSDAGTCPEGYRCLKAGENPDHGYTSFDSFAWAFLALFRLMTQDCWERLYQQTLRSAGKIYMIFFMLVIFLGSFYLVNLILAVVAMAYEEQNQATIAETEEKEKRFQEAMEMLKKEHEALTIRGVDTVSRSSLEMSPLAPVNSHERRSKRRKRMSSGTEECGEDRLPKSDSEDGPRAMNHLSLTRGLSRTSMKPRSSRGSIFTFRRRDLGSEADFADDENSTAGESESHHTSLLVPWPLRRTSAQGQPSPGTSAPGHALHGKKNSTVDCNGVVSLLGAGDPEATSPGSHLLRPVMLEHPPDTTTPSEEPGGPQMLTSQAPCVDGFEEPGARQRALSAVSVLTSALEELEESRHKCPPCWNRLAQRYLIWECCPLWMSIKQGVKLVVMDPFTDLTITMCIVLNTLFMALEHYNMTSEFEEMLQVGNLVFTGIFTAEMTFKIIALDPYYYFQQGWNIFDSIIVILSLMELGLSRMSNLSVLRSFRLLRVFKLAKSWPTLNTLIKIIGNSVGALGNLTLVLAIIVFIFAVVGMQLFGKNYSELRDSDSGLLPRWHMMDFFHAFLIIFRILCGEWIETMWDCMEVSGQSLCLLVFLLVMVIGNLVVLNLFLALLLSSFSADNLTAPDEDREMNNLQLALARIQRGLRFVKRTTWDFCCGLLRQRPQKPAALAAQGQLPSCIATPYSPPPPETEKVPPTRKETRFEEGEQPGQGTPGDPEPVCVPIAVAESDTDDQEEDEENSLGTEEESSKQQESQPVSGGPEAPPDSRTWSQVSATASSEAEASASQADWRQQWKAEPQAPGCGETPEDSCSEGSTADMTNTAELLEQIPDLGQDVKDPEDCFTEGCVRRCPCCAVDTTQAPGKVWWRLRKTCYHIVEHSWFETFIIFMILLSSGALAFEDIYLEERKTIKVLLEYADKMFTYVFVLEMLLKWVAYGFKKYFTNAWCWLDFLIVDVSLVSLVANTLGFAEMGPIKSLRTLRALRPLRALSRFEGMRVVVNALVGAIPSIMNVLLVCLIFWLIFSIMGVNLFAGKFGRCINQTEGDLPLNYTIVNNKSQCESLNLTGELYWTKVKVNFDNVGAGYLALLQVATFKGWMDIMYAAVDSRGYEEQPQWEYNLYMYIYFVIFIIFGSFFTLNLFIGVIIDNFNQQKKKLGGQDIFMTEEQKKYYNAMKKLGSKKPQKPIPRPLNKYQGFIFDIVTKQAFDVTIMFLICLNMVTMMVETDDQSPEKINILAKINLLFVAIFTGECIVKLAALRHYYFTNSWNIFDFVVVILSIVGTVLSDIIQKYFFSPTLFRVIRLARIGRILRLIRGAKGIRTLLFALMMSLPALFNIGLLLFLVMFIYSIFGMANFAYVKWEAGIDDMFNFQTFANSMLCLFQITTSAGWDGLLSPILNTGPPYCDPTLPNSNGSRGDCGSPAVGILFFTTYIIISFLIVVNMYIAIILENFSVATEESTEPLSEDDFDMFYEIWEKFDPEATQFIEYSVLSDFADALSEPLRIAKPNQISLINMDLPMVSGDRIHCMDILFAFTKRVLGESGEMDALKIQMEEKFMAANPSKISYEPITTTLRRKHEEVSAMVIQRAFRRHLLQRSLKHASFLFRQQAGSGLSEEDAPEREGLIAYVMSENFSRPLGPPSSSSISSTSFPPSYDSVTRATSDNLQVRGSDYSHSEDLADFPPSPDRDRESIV

Some results are limits rather than exact numbers.

Sequence of Sodium channel protein type 9 subunit alpha (Q15858 whole entry): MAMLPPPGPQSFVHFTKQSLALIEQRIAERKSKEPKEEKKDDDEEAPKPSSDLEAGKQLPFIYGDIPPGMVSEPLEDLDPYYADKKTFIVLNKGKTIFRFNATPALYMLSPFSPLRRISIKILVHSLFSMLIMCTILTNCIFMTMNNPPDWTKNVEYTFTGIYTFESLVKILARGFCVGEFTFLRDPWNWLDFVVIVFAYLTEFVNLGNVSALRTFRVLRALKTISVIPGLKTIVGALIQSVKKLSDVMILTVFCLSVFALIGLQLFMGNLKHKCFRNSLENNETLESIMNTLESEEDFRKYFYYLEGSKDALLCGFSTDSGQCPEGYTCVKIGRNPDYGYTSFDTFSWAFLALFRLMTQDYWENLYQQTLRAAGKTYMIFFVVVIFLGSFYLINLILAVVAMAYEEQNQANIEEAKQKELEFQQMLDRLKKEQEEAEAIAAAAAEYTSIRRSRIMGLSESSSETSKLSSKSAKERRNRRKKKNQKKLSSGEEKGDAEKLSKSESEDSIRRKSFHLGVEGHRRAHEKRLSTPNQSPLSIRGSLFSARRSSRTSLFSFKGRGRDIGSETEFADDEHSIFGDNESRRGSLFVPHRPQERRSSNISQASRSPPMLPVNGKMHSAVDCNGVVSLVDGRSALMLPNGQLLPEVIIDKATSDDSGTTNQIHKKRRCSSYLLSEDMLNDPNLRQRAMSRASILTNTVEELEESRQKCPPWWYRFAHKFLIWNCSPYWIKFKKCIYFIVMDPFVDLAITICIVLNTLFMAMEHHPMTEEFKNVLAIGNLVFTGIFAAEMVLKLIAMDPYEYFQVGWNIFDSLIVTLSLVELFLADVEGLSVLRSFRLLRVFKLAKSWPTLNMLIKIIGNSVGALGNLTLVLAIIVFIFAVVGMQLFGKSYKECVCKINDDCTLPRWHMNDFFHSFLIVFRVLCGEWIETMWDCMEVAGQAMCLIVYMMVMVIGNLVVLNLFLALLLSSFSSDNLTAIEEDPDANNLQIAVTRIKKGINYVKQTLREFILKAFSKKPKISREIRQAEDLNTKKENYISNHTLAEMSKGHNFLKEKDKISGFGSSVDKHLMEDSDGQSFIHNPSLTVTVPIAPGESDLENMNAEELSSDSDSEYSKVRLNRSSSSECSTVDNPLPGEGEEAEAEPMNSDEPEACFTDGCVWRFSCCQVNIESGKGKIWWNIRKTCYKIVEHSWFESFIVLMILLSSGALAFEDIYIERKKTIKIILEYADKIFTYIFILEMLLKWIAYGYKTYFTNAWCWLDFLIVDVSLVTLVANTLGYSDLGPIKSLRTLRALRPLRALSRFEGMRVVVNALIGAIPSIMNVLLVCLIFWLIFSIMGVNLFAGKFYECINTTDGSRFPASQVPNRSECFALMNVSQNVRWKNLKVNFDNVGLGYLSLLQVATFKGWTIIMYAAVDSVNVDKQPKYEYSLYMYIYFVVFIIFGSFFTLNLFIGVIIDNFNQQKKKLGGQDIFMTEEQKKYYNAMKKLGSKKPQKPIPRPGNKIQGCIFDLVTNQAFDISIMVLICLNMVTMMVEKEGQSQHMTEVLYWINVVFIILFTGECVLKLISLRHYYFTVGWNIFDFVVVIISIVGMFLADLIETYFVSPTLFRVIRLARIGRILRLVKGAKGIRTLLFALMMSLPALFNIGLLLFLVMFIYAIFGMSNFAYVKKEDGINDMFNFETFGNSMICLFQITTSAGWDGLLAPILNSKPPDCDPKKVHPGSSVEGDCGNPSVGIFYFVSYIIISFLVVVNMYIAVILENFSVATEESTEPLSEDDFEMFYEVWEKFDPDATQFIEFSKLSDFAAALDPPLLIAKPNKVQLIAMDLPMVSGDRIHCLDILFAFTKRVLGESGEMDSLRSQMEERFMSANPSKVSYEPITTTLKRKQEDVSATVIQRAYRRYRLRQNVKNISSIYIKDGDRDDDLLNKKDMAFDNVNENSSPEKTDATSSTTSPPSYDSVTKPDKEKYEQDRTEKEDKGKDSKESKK

Take `O=S(=O)(Nc1ncns1)c1cc(F)c(OC2OCCNC2c2ccc3c(c2)OCO3)cc1F` (single isomer, unassigned; isomer A): the IC50 in test [1] is 1.5 µM; in test [2] (hek293), more than 30 µM.

Regarding `Cn1nccc1C1NCCOC1Oc1cc(F)c(S(=O)(=O)Nc2ncns2)cc1F` (single isomer, unassigned; isomer A), the results for the IC50 in test [1] and in test [2] (hek293) were 5.8 µM and more than 30 µM, respectively. For the compound `CC(C)C[C@@H]1COC(Oc2cc(F)c(S(=O)(=O)Nc3ncns3)cc2F)C(c2cc(Cl)cc(Cl)c2)N1` (single isomer, unassigned; isomer B), the IC50 in test [1] was more than 30 µM. Consider `CC(C)C[C@@H]1COC(Oc2cc(F)c(S(=O)(=O)Nc3ncns3)cc2F)C(c2cc(Cl)cc(Cl)c2)N1` (single isomer, unassigned; isomer A), for which the IC50 in test [1] came to 1.7 µM. For the compound `O=S(=O)(Nc1ncns1)c1cc(F)c(OC2OCCNC2c2ccc3c(c2)OCO3)cc1F` (single isomer, unassigned; isomer B), the IC50 in test [1] is 1.1 µM; in test [2], more than 30 µM. Turning to `COc1ccc(C2NCCOC2Oc2cc(F)c(S(=O)(=O)Nc3ncns3)cc2F)cc1` (single isomer, unassigned; isomer B), the IC50 in test [1] was 1.8 µM; in test [2] (hek293) it was more than 30 µM.

As for `O=S(=O)(Nc1ncns1)c1cc(F)c(CO[C@H]2OCCN[C@@H]2c2ccc(F)cc2)cc1F`, the IC50 in test [1] was found to be 2.5 µM. On to `CC1(C)CNC(c2cc(Cl)cc(Cl)c2)C(Oc2cc(F)c(S(=O)(=O)Nc3ncns3)cc2F)O1` (single isomer, unassigned; isomer A), for which, in test [1], the IC50 is 0.14 µM. For the compound `O=S(=O)(Nc1ncns1)c1cc(F)c(OC[C@H]2OCCN[C@@H]2c2ccc(Cl)cc2)cc1F`, the IC50 in test [1] was 29 µM. For the compound `O=S(=O)(Nc1ncns1)c1cc(F)c(OC2OCCNC2c2ccc3ncccc3c2)cc1F` (single isomer, unassigned; isomer B), the concentration for half-maximal inhibition (IC50) in test [1] is 1.6 µM; in test [2], more than 30 µM.

Consider `CC(C)C[C@H]1COC(Oc2cc(F)c(S(=O)(=O)Nc3ncns3)cc2F)C(c2cc(Cl)cc(Cl)c2)N1` (stereo in doubt; 61), for which, in test [1], the IC50 stood at 6.5 µM. Take `O=S(=O)(Nc1ncns1)c1cc(F)c(OC2OCCNC2c2ccc3cnccc3c2)cc1F` (single isomer, unassigned; isomer B): the IC50 in test [1] was 0.51 µM; in test [2], more than 30 µM. Turning to `N#Cc1cccc(C2NCCOC2Oc2cc(F)c(S(=O)(=O)Nc3ncns3)cc2F)c1` (single isomer, unassigned; isomer A), the IC50 in test [1] was 0.92 µM; in test [2], more than 30 µM.

As for `Cn1nc(C(F)(F)F)cc1C1NCCOC1Oc1cc(F)c(S(=O)(=O)Nc2ncns2)cc1F` (single isomer, unassigned; isomer B), the IC50 in test [1] was 4.5 µM; in test [2] it was more than 30 µM. As for `CN(C)c1noc2ccc(C3NCCOC3Oc3cc(F)c(S(=O)(=O)Nc4ncns4)cc3F)cc12` (single isomer, unassigned; isomer A), the IC50 in test [1] was 0.07 µM.

As for `N#Cc1ccc(C2NCCOC2Oc2cc(F)c(S(=O)(=O)Nc3ncns3)cc2F)cc1` (single isomer, unassigned; isomer B), the IC50 in test [1] is 4 µM; in test [2] (hek293), more than 30 µM.

With `O=S(=O)(Nc1ncns1)c1cc(F)c(OC2OCCNC2c2ccc(C(F)(F)F)cc2)cc1F` (single isomer, unassigned; isomer A), the IC50 is 0.39 µM in test [1] and more than 30 µM in test [2]. Consider `CC(C)[C@@H]1COC(Oc2cc(F)c(S(=O)(=O)Nc3ncns3)cc2F)C(c2cc(Cl)cc(Cl)c2)N1` (stereo in doubt; 66), for which, in test [1], the IC50 was found to be 14 µM. On to `O=S(=O)(Nc1ncns1)c1cc(F)c(OC2OCCNC2c2ccc3cnccc3c2)cc1F` (single isomer, unassigned; isomer A), for which the results for the half-maximal inhibitory concentration (IC50) in test [1] and in test [2] (hek293) were 1.4 µM and more than 30 µM, respectively.

Take `O=S(=O)(Nc1ncns1)c1cc(F)c(OC2OCCNC2c2cc(Cl)cc(Cl)c2)cc1F` (single isomer, unassigned; isomer B): the values for the IC50 in test [1] and in test [2] were 0.028 µM and 5.6 µM, respectively. Turning to `COc1ccc(C2NCCOC2Oc2cc(F)c(S(=O)(=O)Nc3ncns3)cc2F)cc1` (single isomer, unassigned; isomer A), the IC50 in test [1] was 0.81 µM; in test [2], more than 30 µM. Take `CC(C)C[C@H]1COC(Oc2cc(F)c(S(=O)(=O)Nc3ncns3)cc2F)C(c2cc(Cl)cc(Cl)c2)N1` (single isomer, unassigned; isomer A): the IC50 in test [1] worked out at 1.1 µM. In the case of `O=S(=O)(Nc1ncns1)c1cc(F)c(OC2OCCNC2c2ccc(C(F)(F)F)cc2)cc1F` (single isomer, unassigned; isomer B), the IC50 in test [1] is 9.7 µM; in test [2] (hek293), more than 30 µM. `COc1ccccc1C1NCCOC1Oc1cc(F)c(S(=O)(=O)Nc2ncns2)cc1F` (single isomer, unassigned; isomer B): the IC50 in test [1] is 4.6 µM; in test [2] (hek293), more than 30 µM. Consider `CC(C)[C@H]1COC(Oc2cc(F)c(S(=O)(=O)Nc3ncns3)cc2F)C(c2cc(Cl)cc(Cl)c2)N1` (single isomer, unassigned; isomer A), for which, in test [1], the IC50 was 0.43 µM. On to `O=S(=O)(Nc1ncns1)c1cc(F)c(OC2OCCNC2c2cccc(C(F)(F)F)c2)cc1F` (single isomer, unassigned; isomer B), for which the IC50 in test [1] is 0.57 µM; in test [2] it was 4.8 µM. On to `CC(C)[C@@H]1COC(Oc2cc(F)c(S(=O)(=O)Nc3ncns3)cc2F)C(c2cc(Cl)cc(Cl)c2)N1` (single isomer, unassigned; isomer B), for which the IC50 in test [1] worked out at 25 µM.

For the compound `O=S(=O)(Nc1ncns1)c1cc(F)c(OC2OCCNC2c2ccc(Cl)cc2Cl)cc1F` (single isomer, unassigned; isomer A), the IC50 amounted to 0.26 µM in test [1] and 1.7 µM in test [2]. As for `CC1(C)COC(Oc2cc(F)c(S(=O)(=O)Nc3ncns3)cc2F)C(c2ccc(Cl)cc2)N1` (single isomer, unassigned; isomer B), in test [1], the IC50 turned out to be 0.58 µM. As for `O=S(=O)(Nc1ncns1)c1cc(F)c(OC2OCCNC2c2ccc(Cl)c(Cl)c2)cc1F` (single isomer, unassigned; isomer B), the figures for the concentration for half-maximal inhibition (IC50) in test [1] and in test [2] were 0.17 µM and 3 µM, respectively. Take `O=S(=O)(Nc1ncns1)c1cc(F)c(OC2OCCNC2c2cc(Cl)cc(Cl)c2)cc1F` (single isomer, unassigned; isomer A): the IC50 turned out to be 0.84 µM in test [1] and 5.6 µM in test [2] (hek293). Regarding `CN(C)c1noc2ccc(C3NCCOC3Oc3cc(F)c(S(=O)(=O)Nc4ncns4)cc3F)cc12` (single isomer, unassigned; isomer B), the IC50 in test [1] was 0.14 µM; in test [2], 5 µM. Turning to `O=S(=O)(Nc1ncns1)c1cc(F)c(OC[C@H]2NCCO[C@@H]2c2ccc(Cl)cc2)cc1F`, the IC50 in test [1] came out at 1.5 µM. On to `COc1ccccc1C1NCCOC1Oc1cc(F)c(S(=O)(=O)Nc2ncns2)cc1F` (single isomer, unassigned; isomer A), for which the IC50 was 0.2 µM in test [1] and more than 30 µM in test [2]. `COc1cccc(C2NCCOC2Oc2cc(F)c(S(=O)(=O)Nc3ncns3)cc2F)c1` (single isomer, unassigned; isomer B): the IC50 was 1.6 µM in test [1] and more than 30 µM in test [2] (hek293). Take `CC1(C)CNC(c2cc(Cl)cc(Cl)c2)C(Oc2cc(F)c(S(=O)(=O)Nc3ncns3)cc2F)O1` (single isomer, unassigned; isomer B): in test [1], the IC50 is 0.45 µM. Take `O=S(=O)(Nc1ncns1)c1cc(F)c(OC2OCCNC2c2cccc(C(F)(F)F)c2)cc1F` (single isomer, unassigned; isomer A): the 50% inhibitory concentration (IC50) in test [1] came to 0.31 µM; in test [2], 0.58 µM. In the case of `O=S(=O)(Nc1ncns1)c1cc(F)c(OC2OCCNC2c2cccc3nccnc23)cc1F` (single isomer, unassigned; isomer B), the half-inhibitory concentration (IC50) in test [1] was 6.3 µM; in test [2], more than 30 µM. Regarding `CC(C)[C@H]1COC(Oc2cc(F)c(S(=O)(=O)Nc3ncns3)cc2F)C(c2cc(Cl)cc(Cl)c2)N1` (single isomer, unassigned; isomer B), the IC50 in test [1] amounted to 1.1 µM.

For `O=S(=O)(Nc1ncns1)c1cc(F)c(OC2OCCNC2c2cccc3nccnc23)cc1F` (single isomer, unassigned; isomer A), the IC50 is 6.6 µM in test [1] and more than 30 µM in test [2] (hek293). On to `O=S(=O)(Nc1ncns1)c1cc(F)c(OC2OCCNC2c2ccc(Cl)nc2)cc1F` (single isomer, unassigned; isomer A), for which the figures for the IC50 in test [1] and in test [2] (hek293) were 17 µM and more than 30 µM, respectively.

`Cn1nccc1C1NCCOC1Oc1cc(F)c(S(=O)(=O)Nc2ncns2)cc1F` (stereo in doubt; 55): the IC50 was 1.8 µM in test [1] and more than 30 µM in test [2].

`O=S(=O)(Nc1ncns1)c1cc(F)c(OC2OCCNC2c2ccc(Cl)c(Cl)c2)cc1F` (single isomer, unassigned; isomer A): the IC50 was 1.2 µM in test [1] and 1 µM in test [2].

Regarding `O=S(=O)(Nc1ncns1)c1cc(F)c(OC2OCCNC2c2ccc3ncccc3c2)cc1F` (single isomer, unassigned; isomer A), the IC50 in test [1] was 2.8 µM; in test [2] (hek293), more than 30 µM. With `O=S(=O)(Nc1ncns1)c1cc(F)c(OC2OCCNC2c2ccc(Cl)nc2)cc1F` (single isomer, unassigned; isomer B), the IC50 is 15 µM in test [1] and more than 30 µM in test [2]. On to `O=S(=O)(Nc1ncns1)c1cc(F)c(OC2OCCNC2c2ccc(F)cc2)cc1F` (single isomer, unassigned; isomer A), for which the IC50 was 0.69 µM in test [1] and more than 30 µM in test [2]. As to `CC1(C)COC(Oc2cc(F)c(S(=O)(=O)Nc3ncns3)cc2F)C(c2ccc(Cl)cc2)N1` (single isomer, unassigned; isomer A), the IC50 in test [1] stood at 0.35 µM. On to `COc1cccc(C2NCCOC2Oc2cc(F)c(S(=O)(=O)Nc3ncns3)cc2F)c1` (single isomer, unassigned; isomer A), for which the IC50 in test [1] was 0.39 µM; in test [2] it was more than 30 µM. For the compound `N#Cc1ccc(C2NCCOC2Oc2cc(F)c(S(=O)(=O)Nc3ncns3)cc2F)cc1` (single isomer, unassigned; isomer A), the IC50 in test [1] is 1.5 µM; in test [2], more than 30 µM.
